{"source": "patent US20040110228A1", "about": "“Combinatorial organic synthesis of unique biologically active compounds” (priority 2002, published 2004)", "key": {"[1]": {"system": "Holliday junction (HJ) intermediate", "assay": "in vitro Holliday junction trapping assay (recombination of radiolabeled and unlabeled DNA substrates)", "assay_type": "biochemical", "conditions": "0.01 mg/ml concentrations of peptides; FIG. 56", "procedure": "The eight macrocyclic compounds shown in FIGS. 55 were tested for their ability to bind to the HJ in an in vitro assay. The assay employs a recombination reaction between one radiolabeled double-stranded DNA substrate and an unlabeled partner DNA substrate. Successful recombination gives recombination products and very small amounts of HJ intermediate. A previously identified linear peptide dimer of […] was used as a positive control because it was known to accumulate HJs, as described in […] et al., 2000, supra). During the recombination reaction, two initial DNA cleavage and ligation reactions must take place to form the junction, and two subsequent DNA cleavage and ligation reactions resolve the HJs into double stranded recombination products."}, "[2]": {"system": "bacterial strains, both gram positive and gram negative", "assay": "growth inhibition assays in microtiter plates (cell density at 600 nm)", "assay_type": "cell-based", "conditions": "101 μg/ml and 100 μg/ml; FIG. 57", "procedure": "The eight macrocyclic compounds shown in FIGS. 55 were tested for their ability to bind to the HJ and inhibit bacterial growth in an in vivo assay. Growth inhibition assays were performed in microtiter plates, by comparing the growth of bacteria in the presence and absence of compounds. Cell density at 600 nm was determined for a series of bacterial strains, both gram positive and gram negative, in the presence and absence of macrocyclic compounds. […] Measurements were taken using a BioRad microtiter plate reader. […] The diluted cultures were shaken at 37° C. and optical densities were measured at 30-minute intervals in order to follow their growth. […]\nIn order to test the inhibitory potency of the peptides, cell growth assays were performed. […] The cell growth assays were performed in microtiter plates; measurements are taken using a BioRad microtiter plate reader.\nOvernight bacterial cultures were diluted 1:20 into media and each test compound was added in no more than 10% of the volume of the final suspension. […] The diluted cultures were shaken at 37° C. and optical densities were measured at 30 minute intervals to follow their growth. […]\nFour linear heptamers prepared according to FIGS. 63 were tested for their bacteria growth inhibition. […] Measurements were taken using a BioRad microtiter plate reader. […]"}, "[3]": {"system": "Bare Lymphocyte Syndrome (BLS) cell line", "assay_type": "cell-based", "procedure": "Toxicity of peptides KWWCRW and WKHYNY was determined by testing the inhibition of a eukaryotic cell line using a vital stain. The peptides were determined to not be cytotoxic in a non-adherent eukaryotic cell line, Bare Lymphocyte Syndrome (BLS), at concentrations below 250 mg/ml. (Allicotti et al, Manuscript in Preparation). The MTT cytotoxicity assay was used to measure cytotoxicity of the class B synergimycin compounds (Mosmann, Immunol. Methods 65:55-63 (1983)). In this assay, 3-(4,5-dimethylthiazol-2-yl)-2,5-diphenyl tetrazolium bromide (MTT) is converted by live cells into the purple compound formazan. The amount of formazan produced is measured at OD570. The absorbance of the sample wells is compared to the absorbance of the control wells. The readings are used to calculate an IC50 for each peptide. This value represents the concentration of each peptide that reduces the growth of the BLS cells to 50% of the maximum growth measured in the controls."}, "[4]": {"biological_target": "T1, Int protein (Escherichia phage lambda, UniProt P03700)", "T1 sequence (P0A6Y1 whole entry)": "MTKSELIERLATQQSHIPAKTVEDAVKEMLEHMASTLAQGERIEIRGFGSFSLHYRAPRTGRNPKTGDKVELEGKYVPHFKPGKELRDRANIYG", "T1 sequence (P03699 whole entry, further chain)": "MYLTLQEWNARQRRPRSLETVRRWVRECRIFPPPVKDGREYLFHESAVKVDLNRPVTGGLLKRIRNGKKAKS", "T1 sequence (P0A6X7 whole entry, further chain)": "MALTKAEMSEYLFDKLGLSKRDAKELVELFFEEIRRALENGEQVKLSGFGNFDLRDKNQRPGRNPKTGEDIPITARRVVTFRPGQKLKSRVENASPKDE", "T1 sequence (P03700 whole entry)": "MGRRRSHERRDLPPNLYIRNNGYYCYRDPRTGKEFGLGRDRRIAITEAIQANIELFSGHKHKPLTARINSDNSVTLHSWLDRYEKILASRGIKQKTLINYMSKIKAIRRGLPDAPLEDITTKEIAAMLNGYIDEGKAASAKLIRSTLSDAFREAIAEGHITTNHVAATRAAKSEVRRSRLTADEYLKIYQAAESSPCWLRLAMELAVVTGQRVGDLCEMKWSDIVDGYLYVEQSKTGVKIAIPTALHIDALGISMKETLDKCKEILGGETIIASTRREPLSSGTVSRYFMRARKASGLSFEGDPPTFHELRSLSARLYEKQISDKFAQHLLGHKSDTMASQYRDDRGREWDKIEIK", "conditions": "Cassell et al. 2000; cited from earlier work"}, "[5]": {"biological_target": "T1, Int protein", "assay": "in vitro recombination reaction catalysed by the Int protein (attL/attR substrates, gel)", "assay_type": "biochemical"}, "[6]": {"system": "Salmonella typhimurium", "assay": "cell growth assay (OD600)", "assay_type": "cell-based", "conditions": "Salmonella enterica serovar Typhimurium Ames strain and LT2 strain; peptides in the medium"}}, "note": "Where a SMILES comes first, the peptide text is derived from it. Where no end group is shown, it is not given here. [ ]: non-standard residue; d: D form. ξ: configuration not given here. ξW = NC(Cc1c[nH]c2ccccc12)C(=O)O; dTic = O=C(O)[C@H]1Cc2ccccc2CN1; Tic = O=C(O)[CH]1Cc2ccccc2CN1; ξF = NC(Cc1ccccc1)C(=O)O"}
{"molecule": "O=C1NC(Cc2ccccc2)C(=O)N2Cc3ccccc3CC2C(=O)NC(Cc2ccccc2)C(=O)NC(Cc2ccccc2)C(=O)N2Cc3ccccc3CC2C(=O)NC1Cc1ccccc1", "note": "(stereo not shown) [A] (cyclo(FF[Tic]FF[Tic]); configuration not given here)", "values": [{"measurement": "accumulation of HJ intermediates / binding to the HJ", "setting": "[1]", "value": "particularly active"}]}
{"molecule": "O=C1NC(Cc2c[nH]c3ccccc23)C(=O)N2Cc3ccccc3CC2C(=O)NC(Cc2ccccc2)C(=O)NC(Cc2c[nH]c3ccccc23)C(=O)N2Cc3ccccc3CC2C(=O)NC1Cc1ccccc1", "note": "(stereo not shown) [B] (cyclo(FW[Tic]FW[Tic]); configuration not given here)", "values": [{"measurement": "accumulation of HJ intermediates / binding to the HJ", "setting": "[1]", "value": "particularly active"}]}
{"molecule": "O=C1NC(Cc2ccccc2)C(=O)N2Cc3ccccc3C[C@@H]2C(=O)NC(Cc2ccccc2)C(=O)NC(Cc2ccccc2)C(=O)N2Cc3ccccc3C[C@@H]2C(=O)NC1Cc1ccccc1", "note": "(stereo partly shown) [D] (cyclo([dTic][ξF][ξF][dTic][ξF][ξF]))", "values": [{"measurement": "accumulation of HJ intermediates / binding to the HJ", "setting": "[1]", "value": "particularly active"}]}
{"molecule": "O=C1NC(Cc2c[nH]c3ccccc23)C(=O)N2Cc3ccccc3C[C@@H]2C(=O)NC(Cc2ccccc2)C(=O)NC(Cc2c[nH]c3ccccc23)C(=O)N2Cc3ccccc3C[C@@H]2C(=O)NC1Cc1ccccc1", "note": "(stereo partly shown) [E] (cyclo([dTic][ξF][ξW][dTic][ξF][ξW]))", "values": [{"measurement": "accumulation of HJ intermediates / binding to the HJ", "setting": "[1]", "value": "particularly active"}]}
{"molecule": "O=C1CNC(=O)C(Cc2c[nH]c3ccccc23)NC(=O)C(Cc2ccccc2)NC(=O)CNC(=O)C(Cc2c[nH]c3ccccc23)NC(=O)C(Cc2ccccc2)N1", "note": "(stereo not shown) [H] (cyclo(GFWGFW); configuration not given here)", "values": [{"measurement": "bacterial growth inhibition by macrocyclic compounds", "setting": "[2]", "value": "greatest level of activity"}]}
{"molecule": "KWWCRW [KWWCRW, LysTrpTrpCysArgTrp]", "values": [{"measurement": "concentrations at which not cytotoxic", "setting": "[3]", "value": "below 250 mg/ml"}]}
{"molecule": "TrpLys(His or Ala)TyrAsnTyr [WK(HorA)YNY]", "values": [{"measurement": "potency among Holliday junction-stabilizing peptide families", "setting": "[4]", "value": "the most potent"}]}
{"molecule": "WKHYNY [WKHYNY]", "values": [{"measurement": "concentrations at which not cytotoxic", "setting": "[3]", "value": "below 250 mg/ml"}]}
{"molecule": "WRWYCR [WRWYCR, TrpArgTrpTyrCysArg]", "values": [{"measurement": "potency among peptides of a screen for site-specific recombination inhibitors", "setting": "[5]", "value": "the most potent"}, {"measurement": "inhibition of bacterial cell growth, FIG. 12", "setting": "[6]", "value": "inhibition of bacterial cell growth"}]}
